Test [1] relates to ERα downstream targets PGR and GREB1 in PDEC-BC. The experiment in a line: QRT-PCR of ERα target genes in PDEC-BC cultures after tamoxifen/antiestrogen treatment. The test is classed as cell-based, human. The protocol: Instead of anisomycin, the stress activated protein kinase pathway is also activated by multiple other factors e.g oxidative stress. We observed, if the PDEC cultures were performed under a higher oxygen concentration, such as in air-liquid interface, the functional ERα was preserved together with the activation of p38 (FIG. 5A). We treated these PDEC-BC with antiestrogens and observed a suppression in ERα downstream targets PGR and GREB1 (FIG. 5B).
We exposed the human PDEC-N and PDEC-BC cultures to the additional compressive forces with the magnet mediated mechanical compression (FIG. 5C). […] We treated the compressed PDEC-BC with tamoxifen and observed a suppression in ERα downstream targets PGR and GREB1 (FIG. 5E).

A further test relates to MMECs. The experiment in a line: Immunofluorescent staining of nuclear ERα in MMECs after compound exposure. The test is classed as cell-based, mouse. The following applies: MMECs after exposure to compound. The protocol: Mouse primary mammary epithelial fragments were isolated with 0.2% collagenase for 1 h at +37° C. Media used for the mouse tissue was DMEM/F12 (Thermo Fisher Scientific) supplemented with 5% horse serum, 5 ug/mL Insulin, 1 µg/mL hydrocortisone, 10 ng/mL EGF, and 100 U PenStrep.
For immunofluorescent analysis 3D cultured breast cancer fragments were fixed with 4% paraformaldehyde for 20 min at room temperature and washed three times with PBS. The tissue fragments were permeabilized with 0.25% Triton X-100 in PBS for 10 min at RT and blocked in IF buffer (7.7 mM NaN3, 0.1% BSA, 0.2% Triton X-100, and 0.05% Tween 20 in PBS) supplemented with 10% (vol/vol) normal goat serum for1-1.5 h. The fragments were then incubated with the primary antibody diluted in blocking solution overnight at +4° C. Following incubation, fragments were washed three times with IF buffer (20 min each wash) and then incubated with the appropriate Alexa Fluor secondary antibody diluted in IF buffer with 10% goat serum. After 60 min of incubation at RT, the fragments were washed with IF buffer as before and the nuclei were counterstained with Hoechst 33258 (Sigma). Slides containing tissue fragments were mounted with ImmuMount reagent. Images of the structures were acquired using a Leica TCS SP8 CARS confocal microscope using a HC PL APO CS2 40x objective. […]

In another test the test system is PDEC-N and PDEC-BC. The experiment in a line: Immunofluorescent staining of nuclear ERα and phosphorylated p38 in PDEC-N and PDEC-BC after compound exposure. The test is classed as cell-based, human. The protocol:
Fresh tissue was obtained from elective breast cancer surgeries. Tissue was collected from both the tumor tissue and the area surrounding the tumor (non-tumor samples). Also tissue from reduction mammoplasties (RMP) were collected. From every tumor, one portion was taken for immunohistochemical analysis (IHC), for DNA/RNA/protein isolation, and the rest was used for isolation of fragments and 3D culture. For isolation of human breast cancer fragments, breast cancer tissue was incubated with 0.2% collagenase in MammoCult media produced by StemCell technologies (supplemented with 4 ug/mL heparin, MammoCult proliferation supplements, 0.1 µg/mL 10.000 UI/mL PenStrep, Amphotericin, and 25 µg/mL Gentamycin) with gentle shaking at 37° C. overnight. The resulting cell suspension was then centrifuged at 1,300 rpm for 3 min, washed once with MammoCult and plated in 8-chamber plates. Matrices used for the cultures were: Agarose (UltraPure™ Low Melting Point Agarose, Invitrogen™), Collagen (Collagen I Rat tail, Corning), Matrigel (Matrigel Basement Matrix Growth Factor Reduced, 8.8 mg/mL, Corning), Egg white, Ovomucine, GrowDex (15 mg/mL, UPM-Kymmene OYj), Alginate (Alginic acid sodium salt, Aldrich) and Alginate-RGD (Sodium Alginate MVG GRGDSP, NovaMatrix, NOVATACH). Ovomucin was isolated from chicken egg whites according to an established protocol (Omana and Wu, 2009, J Agric Food Chem 57, 3596-3603). Briefly, ovomucin was isolated from egg white using isoelectric precipitation in the presence of 100 mM NaCl solution at pH adjusted to 6.0. The resulting mixture was stored overnight at 4° C. in a refridgerator followed by centrifugation. The precipitate was re-suspended in 500 mM NaCl solution at pH 6.0 again and stored overnight at 4° C. The dispersion was centrifuged, and the precipitate was purified by dialyzing against water overnight. Dialysed sample was freeze-dried under the vacuum. For gelation, the solid ovomucin powder was dissolved in MilliQ (18 W) water using Ultra-Turrax (IKA) mixer.
For immunofluorescent analysis 3D cultured breast cancer fragments were fixed with 4% paraformaldehyde for 20 min at room temperature and washed three times with PBS. The tissue fragments were permeabilized with 0.25% Triton X-100 in PBS for 10 min at RT and blocked in IF buffer (7.7 mM NaN3, 0.1% BSA, 0.2% Triton X-100, and 0.05% Tween 20 in PBS) supplemented with 10% (vol/vol) normal goat serum for1-1.5 h. The fragments were then incubated with the primary antibody diluted in blocking solution overnight at +4° C. Following incubation, fragments were washed three times with IF buffer (20 min each wash) and then incubated with the appropriate Alexa Fluor secondary antibody diluted in IF buffer with 10% goat serum. After 60 min of incubation at RT, the fragments were washed with IF buffer as before and the nuclei were counterstained with Hoechst 33258 (Sigma). Slides containing tissue fragments were mounted with ImmuMount reagent. Images of the structures were acquired using a Leica TCS SP8 CARS confocal microscope using a HC PL APO CS2 40x objective.
(§1) We observed stress-responsive mitogen-activated protein kinase (MAPKs) pathway activated in the in LMx-Ag, compared to LMx-Al. The nuclear expression of phosphorylated p38 was also visible in the MMECs cultured in LMx-Ag. To confirm the role of stress-responsive mitogen-activated protein kinases in the ERα activation, we used anisomycin to directly activate the pathway in TNBC cell line, DU4475. […] We used inhibitor of the methyltransferase EZH2, which mediates the silencing of ERα and observed the retained expression of ERα (FIG. 4D).

Another test concerns TNBC cell line DU4475. The experiment in a line: Immunofluorescent staining of nuclear ERα in TNBC cell line DU4475 after EZH2 inhibitor. It counts as cell-based. As to conditions: TNBC cell line DU4475 after exposure to compound.
In a further test the test system is TNBC cell line, DU4475. Put plainly: Western blot of ERα in TNBC cell line after anisomycin treatment. It counts as cell-based.
Excerpt: as §1

The mark [2] stands for this setting: PDEC-BC exposed to magnet-mediated compression.
[3] abbreviates: PDEC-BC (PDEC-T) after exposure to compound.
[4] abbreviates: PDEC-N after exposure to compound.

“Also recorded” adds a separate entry of the source.

For `CC/C(=C(\c1ccccc1)c1ccc(OCCN(C)C)cc1)c1ccccc1` [tamoxifen], the GREB1 expression entry in test [1] (setting [2]) is given as “suppression”. The “PGR expression (QRT-PCR)” value in test [1] (setting [2]) is recorded as “suppression”; in test [1] (PDEC-BC exposed to magnet-mediated compression, listed as Tamoxifen), “suppresses”; in test [1] (air-liquid interface (ALI) cultured PDEC-BC, o/n treatment), “downregulation”.
Regarding `CC[C@H](C)n1cc(C)c2c(C(=O)NCc3c(C)cc(C)[nH]c3=O)cc(-c3ccc(N4CCNCC4)nc3)cc21` [GSK-126], the “nuclear ERα (immunofluorescent staining)” value in the test on MMECs is “activation of nuclear ERα”; in the test with PDEC-N and PDEC-BC (setting [3]), “activation of nuclear ERα”; in the test with PDEC-N and PDEC-BC (setting [4]), “activation of nuclear ERα”; in the test on TNBC cell line DU4475, “activation of nuclear ERα”.
As for `COc1ccc(C[C@H]2NC[C@H](O)[C@H]2OC(C)=O)cc1` [anisomycin], the “nuclear ERα (immunofluorescent staining)” value with MMECs is “activation of nuclear ERα”; in the test on PDEC-N and PDEC-BC (setting [3]), “activation of nuclear ERα”; in the test on PDEC-N and PDEC-BC (setting [4]) it was “activation of nuclear ERα”. Moreover, the “phosphorylated p38 (immunofluorescent staining)” value in the test on PDEC-N and PDEC-BC (PDEC-BC after exposure to compound) was “activation of phosphorylated-38”; in the test on PDEC-N and PDEC-BC (setting [4]), “activation of phosphorylated-38”. Besides, in the test with TNBC cell line, DU4475, the “ERα expression (Western blot)” value is on record as “able to activate the ERα expression; also recorded: upregulation of ERα”.

These data come from US20230151334A1, “CULTURE PLATFORMS, METHODS, AND USES THEREOF” (HELSINGIN YLIOPISTO, priority 2020, published 2023).
